Blank lines part the entries; values can stand above or below the molecule they belong to.
Experiments:
human Nav1.1 = biological target: T1, human Nav1.1 (Homo sapiens, UniProt P35498); assay: Amplification of Nav1.1-derived voltage-dependent sodium current (Nav1.1 current), cell line stably expressing human Nav1.1, automated patch clamp; format: cell-based; conditions: for activation at 10 µM / activation at 3 µM: read-out: Nav1.1 current amplification rate (%)
T1 construct: host or cells: HEK293
How it was run: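 Automated whole-cell voltage-clamp recordings used HEK293 cells stably expressing human Nav1.1, keeping only cells with >500 pA current, with currents evoked by ramp voltage. Compounds were applied in extracellular fluid with 1% DMSO, and amplification (%) was computed from peak current or AUC after versus before addition.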

human Nav1.5 = biological target: T2, human Nav1.5 (Homo sapiens, UniProt Q14524); assay: Amplification of Nav1.5-derived voltage-dependent sodium current (Nav1.5 current), cell line stably expressing human Nav1.5, automated patch clamp; format: cell-based; conditions: for activation at 10 µM / activation at 3 µM: read-out: Nav1.5 current amplification rate (%)
T2 construct: expressed in transfected cells; host or cells: CHO-K1 (T-REx System, ThermoFisher Scientific)

[1] = compound 3 μmol/L, HEK293 stably expressing human Nav1.1
[2] = compound 3 μmol/L, CHO-K1 stably expressing human Nav1.5
[3] = 10 μmol/L compound, change of the area under the curve of Nav1.1 current (Test Result 1)
[4] = 10 μmol/L compound, change of the area under the curve of Nav1.5 current (Test Result 1)

T2 sequence (Q14524 1-2015 isoform Q14524-2): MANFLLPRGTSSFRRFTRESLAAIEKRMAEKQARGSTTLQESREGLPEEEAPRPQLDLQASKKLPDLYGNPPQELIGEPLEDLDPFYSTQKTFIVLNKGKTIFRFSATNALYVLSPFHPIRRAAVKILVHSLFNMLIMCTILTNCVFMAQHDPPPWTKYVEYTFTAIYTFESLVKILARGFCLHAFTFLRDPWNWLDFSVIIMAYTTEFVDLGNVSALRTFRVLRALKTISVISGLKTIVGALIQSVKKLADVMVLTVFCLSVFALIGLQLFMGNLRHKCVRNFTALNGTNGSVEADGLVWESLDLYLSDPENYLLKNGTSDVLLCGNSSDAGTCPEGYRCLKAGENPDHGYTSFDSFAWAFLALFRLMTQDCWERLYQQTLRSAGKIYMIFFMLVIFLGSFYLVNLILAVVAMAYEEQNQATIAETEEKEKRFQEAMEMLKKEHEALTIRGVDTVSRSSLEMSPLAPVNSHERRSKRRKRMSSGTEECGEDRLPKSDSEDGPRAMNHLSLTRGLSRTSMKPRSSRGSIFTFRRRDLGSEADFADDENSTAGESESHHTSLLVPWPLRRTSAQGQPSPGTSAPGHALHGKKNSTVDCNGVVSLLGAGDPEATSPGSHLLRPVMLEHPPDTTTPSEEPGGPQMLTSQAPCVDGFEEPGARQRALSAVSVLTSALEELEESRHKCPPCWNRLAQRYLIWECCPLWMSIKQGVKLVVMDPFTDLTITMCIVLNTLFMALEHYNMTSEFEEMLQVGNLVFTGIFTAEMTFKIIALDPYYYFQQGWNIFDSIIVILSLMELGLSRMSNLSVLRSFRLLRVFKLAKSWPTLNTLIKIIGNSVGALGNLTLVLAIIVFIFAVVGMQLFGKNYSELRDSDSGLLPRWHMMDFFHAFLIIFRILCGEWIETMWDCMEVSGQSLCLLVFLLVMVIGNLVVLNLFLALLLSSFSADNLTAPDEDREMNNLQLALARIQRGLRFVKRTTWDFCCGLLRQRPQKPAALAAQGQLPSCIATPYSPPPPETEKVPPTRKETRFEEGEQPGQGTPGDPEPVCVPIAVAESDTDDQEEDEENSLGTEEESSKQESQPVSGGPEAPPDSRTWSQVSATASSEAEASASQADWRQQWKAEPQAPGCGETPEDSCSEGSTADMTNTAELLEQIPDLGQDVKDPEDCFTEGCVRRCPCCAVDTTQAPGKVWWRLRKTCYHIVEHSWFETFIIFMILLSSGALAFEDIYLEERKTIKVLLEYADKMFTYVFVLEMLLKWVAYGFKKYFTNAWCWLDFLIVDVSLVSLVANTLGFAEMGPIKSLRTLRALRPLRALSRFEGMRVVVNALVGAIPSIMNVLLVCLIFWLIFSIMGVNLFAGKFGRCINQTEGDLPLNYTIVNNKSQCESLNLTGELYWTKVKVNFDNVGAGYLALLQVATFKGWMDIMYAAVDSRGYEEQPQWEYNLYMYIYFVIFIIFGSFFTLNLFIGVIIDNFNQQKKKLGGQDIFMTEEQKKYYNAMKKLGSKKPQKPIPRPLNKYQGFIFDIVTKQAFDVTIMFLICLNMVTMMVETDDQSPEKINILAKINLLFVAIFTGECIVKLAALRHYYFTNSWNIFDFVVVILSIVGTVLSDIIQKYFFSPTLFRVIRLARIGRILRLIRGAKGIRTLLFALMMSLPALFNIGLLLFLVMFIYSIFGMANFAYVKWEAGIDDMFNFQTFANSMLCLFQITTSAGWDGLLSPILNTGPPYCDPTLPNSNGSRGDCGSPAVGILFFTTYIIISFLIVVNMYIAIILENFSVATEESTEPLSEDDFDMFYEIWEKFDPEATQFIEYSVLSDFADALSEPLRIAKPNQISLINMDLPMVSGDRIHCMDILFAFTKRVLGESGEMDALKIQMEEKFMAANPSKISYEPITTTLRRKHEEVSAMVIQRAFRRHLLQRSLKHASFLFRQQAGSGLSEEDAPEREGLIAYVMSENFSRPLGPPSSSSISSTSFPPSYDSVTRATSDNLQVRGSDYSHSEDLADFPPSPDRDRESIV

SMILES: CC1CC=C(c2ccc(=O)n(CC(=O)N3CC=C(c4ccccc4)CC3)n2)CC1 (racemic) [Example 257]
Nav1.1 current amplification rate (%) (human Nav1.1; [1]): 45%
Nav1.5 current amplification rate (%) (human Nav1.5; [2]): 0%

SMILES: CC1CC=C(c2ccc(=O)n(CC(=O)Nc3ccc4oc(CN5CCOCC5)nc4c3)n2)CC1 (racemic) [Example 331]
Nav1.1 current amplification rate (%) (human Nav1.1; [1]): 64%
Nav1.5 current amplification rate (%) (human Nav1.5; [2]): 9%

SMILES: CC1CCN(c2ccc(=O)n(CC(=O)Nc3cccc(-n4ccnc4)c3)n2)CC1 [Example 67]
Nav1.1 current amplification rate (%) (human Nav1.1; [3]): 177%
Nav1.5 current amplification rate (%) (human Nav1.5; [4]): 18%

SMILES: O=C(Cn1nc(C2=CCC(F)(F)CC2)ccc1=O)Nc1cncc(C(F)(F)F)c1 [Example 112]
activation at 10 µM (human Nav1.1; [3]): 46%
activation at 10 µM (human Nav1.5; [4]): 9%

SMILES: O=C(Cn1nc(N2CCC3(CCC3)C2)ccc1=O)Nc1ccc2c(c1)OCCO2 [Example 191]
activation at 3 µM (human Nav1.1; [1]): 52%
activation at 3 µM (human Nav1.5; [2]): 2%

SMILES: Cc1ccc(N2CCN(C(=O)Cn3nc(C4=CCC(C)(C)CC4)ccc3=O)CC2)cn1 [Example 443]
Nav1.1 current amplification rate (%) (human Nav1.1; [3]): 114%
Nav1.5 current amplification rate (%) (human Nav1.5; [4]): 1%

SMILES: CC1CC=C(c2ccc(=O)n(CC(=O)N3CCc4c(CN5CC=CC5)cccc43)n2)CC1 (racemic) [Example 287]
Nav1.1 current amplification rate (%) (human Nav1.1; compound 1 μmol/L, HEK293 stably expressing human Nav1.1): 73%
Nav1.5 current amplification rate (%) (human Nav1.5; compound 1 μmol/L, CHO-K1 stably expressing human Nav1.5): 123%

SMILES: Cc1cc2cc(NC(=O)Cn3nc(N4CCC(C)CC4)ccc3=O)ccc2o1 [Example 175]
activation at 10 µM (human Nav1.1; [3]): 44%
activation at 10 µM (human Nav1.5; [4]): 1%

SMILES: Cc1nc2cc(NC(=O)Cn3nc(C4=CCC(C)CC4)ccc3=O)cnc2s1 (racemic) [Example 326]
Nav1.1 current amplification rate (%) (human Nav1.1; [1]): 132%
Nav1.5 current amplification rate (%) (human Nav1.5; [2]): 34%

SMILES: COc1nc2cc(NC(=O)Cn3nc(C4=CCC(C)(C)CC4)c(OC)cc3=O)ccc2o1 [Example 491]
activation at 3 µM (human Nav1.1; [1]): 157%
activation at 3 µM (human Nav1.5; [2]): 22%

SMILES: CC1CCN(c2ccc(=O)n(CC(=O)Nc3cc(Cl)c4ocnc4c3)n2)CC1 [Example 94]
Nav1.1 current amplification rate (%) (human Nav1.1; [3]): 198%
Nav1.5 current amplification rate (%) (human Nav1.5; [4]): 29%

SMILES: Cc1nc2cc(NC(=O)Cn3nc(C4=CCC(C)CC4)ccc3=O)ccn2c1C (racemic) [Example 329]
Nav1.1 current amplification rate (%) (human Nav1.1; [1]): 100%
Nav1.5 current amplification rate (%) (human Nav1.5; [2]): 50%

SMILES: CC1CC=C(c2ccc(=O)n(CC(=O)N3CCc4c(C5CN(C(=O)C(C)(C)O)C5)cccc43)n2)CC1 (racemic) [Example 306]
Nav1.1 current amplification rate (%) (human Nav1.1; [1]): 532%
Nav1.5 current amplification rate (%) (human Nav1.5; [2]): 327%

Further lines, with some results ahead:

Nav1.1 current amplification rate (%) (human Nav1.1; [3]): 343%
SMILES: CC1CC=C(c2ccc(=O)n(CC(=O)N3CCN(c4cccnc4)CC3)n2)CC1 (racemic) [Example 395]
Nav1.5 current amplification rate (%) (human Nav1.5; [4]): 15%

activation at 10 µM (human Nav1.1; [3]): 181%
SMILES: O=C(Cn1nc(N2CCCC3(CCC3)C2)ccc1=O)Nc1ccc2ocnc2c1 [Example 130]
activation at 10 µM (human Nav1.5; [4]): 3%

Nav1.1 current amplification rate (%) (human Nav1.1; [3]): 315%
SMILES: Cc1noc2cc(NC(=O)Cn3nc(N4CCC(C)CC4)ccc3=O)ccc12 [Example 84]
Nav1.5 current amplification rate (%) (human Nav1.5; [4]): 123%

Nav1.1 current amplification rate (%) (human Nav1.1; [1]): 392%
SMILES: CC1CC=C(c2ccc(=O)n(CC(=O)N3CCc4c(-c5cccnc5)cccc43)n2)CC1 (racemic) [Example 248]
Nav1.5 current amplification rate (%) (human Nav1.5; [2]): 44%

Nav1.1 current amplification rate (%) (human Nav1.1; [3]): 190%
SMILES: O=C(Cn1nc(C2=CCC(C(F)(F)F)CC2)ccc1=O)N1CCN(c2cncc(F)c2)CC1 (racemic) [Example 487]
Nav1.5 current amplification rate (%) (human Nav1.5; [4]): 109%

Nav1.1 current amplification rate (%) (human Nav1.1; [3]): 522%
SMILES: COc1cc(=O)n(CC(=O)N2CCc3c(N4CCOCC4)cccc32)nc1C1=CCC(C)(C)CC1 [Example 470]
Nav1.5 current amplification rate (%) (human Nav1.5; [4]): 131%

Nav1.1 current amplification rate (%) (human Nav1.1; [3]): 36%
SMILES: CC1CC=C(c2ccc(=O)n(CC(=O)N3CCC(c4ccccc4)CC3)n2)CC1 (racemic) [Example 256]
Nav1.5 current amplification rate (%) (human Nav1.5; [4]): −30%

activation at 10 µM (human Nav1.1; [3]): 324%
SMILES: O=C(Cn1nc(N2CCC3(CCC3)C2)ccc1=O)Nc1ccc2scnc2c1 [Example 160]
activation at 10 µM (human Nav1.5; [4]): 33%

Nav1.1 current amplification rate (%) (human Nav1.1; [3]): 186%
SMILES: CC1(C)CC=C(c2ccc(=O)n(CC(=O)Nc3ccn4ccnc4c3)n2)C1 [Example 465]
Nav1.5 current amplification rate (%) (human Nav1.5; [4]): 8%

activation at 10 µM (human Nav1.1; [3]): 118%
SMILES: CC1CCN(c2ccc(=O)n(CC(=O)Nc3ccc4ccoc4c3)n2)CC1 [Example 163]
activation at 10 µM (human Nav1.5; [4]): 1%

Nav1.1 current amplification rate (%) (human Nav1.1; [3]): 42%
SMILES: CC1CC=C(c2ccc(=O)n(CC(=O)N3CC=C(c4nccc5occc45)CC3)n2)CC1 (centres unmarked) [Example 404]
Nav1.5 current amplification rate (%) (human Nav1.5; [4]): 6%

activation at 10 µM (human Nav1.1; [3]): 118%
SMILES: CC1CCN(c2ccc(=O)n(CC(=O)Nc3ccc4c(c3)NC(=O)CC4)n2)CC1 [Example 181]
activation at 10 µM (human Nav1.5; [4]): 4%

From patent US20220347175A1, “PYRIDAZINONE DERIVATIVE” (Sumitomo Dainippon Pharma Co., Ltd., priority 2018, published 2022)
